According to paper PMC3780361 (Bioorganic & medicinal chemistry, 2013):
In brackets after ≈: the same amount, converted by molar mass.

What was measured:
physchem = conditions: pH 7.4
recombinant human sEH = molecular target: T1, recombinant human sEH (Homo sapiens, UniProt P34913); assay: Human soluble epoxide hydrolase assay; assay type: biochemical
T1 sequence (P34913 1-555): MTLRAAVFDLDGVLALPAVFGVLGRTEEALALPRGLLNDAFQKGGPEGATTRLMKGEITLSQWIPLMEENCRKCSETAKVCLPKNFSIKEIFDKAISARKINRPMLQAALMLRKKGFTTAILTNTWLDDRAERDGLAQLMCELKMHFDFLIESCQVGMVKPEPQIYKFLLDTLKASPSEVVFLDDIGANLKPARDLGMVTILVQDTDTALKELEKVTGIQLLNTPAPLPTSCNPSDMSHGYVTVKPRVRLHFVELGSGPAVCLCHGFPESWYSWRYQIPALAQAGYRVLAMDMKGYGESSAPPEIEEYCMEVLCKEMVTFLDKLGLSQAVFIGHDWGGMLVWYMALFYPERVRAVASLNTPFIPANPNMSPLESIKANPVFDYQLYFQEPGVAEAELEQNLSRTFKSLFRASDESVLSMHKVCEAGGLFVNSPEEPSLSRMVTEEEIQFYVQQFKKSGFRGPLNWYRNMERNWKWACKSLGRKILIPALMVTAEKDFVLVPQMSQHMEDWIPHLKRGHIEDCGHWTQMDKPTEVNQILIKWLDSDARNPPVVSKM

M. tb H37Rv [1] = assay: M. tb MIC determination by microbroth dilution; assay type: cell-based; conditions: Mycobacterium tuberculosis, 168 h, read-out: M. tb MIC
in vitro = conditions: monkey; for IC50 at 72 h: Cytotoxicity IC50
M. tb H37Rv [2] = conditions: secondary-linked 1 vs tertiary-linked 2; cited from earlier work
[3] = Cytotoxicity determination; conditions: monkey, Cytotoxicity IC50, VERO cell line, MTT
[4] = Permeability determination; conditions: PAMPA, pH 7.4

Compound: Nc1ccc(S(=O)(=O)c2ccc(NC(=O)NC34CC5CC(CC(C5)C3)C4)cc2)cc1 [Compound 13, 1-(1-adamantyl)-3-(4-((4-aminophenyl)sulfonyl)phenyl)urea]
- solubility at 18 h (physchem): 0.9 ± 0.1 µg/mL (≈ 2.11 µM)
- IC50 (recombinant human sEH): 700 pM
- MIC (M. tb H37Rv [1]): 6.25 µg/mL (≈ 14.7 µM)
- selectivity ratio at 72 h (in vitro): 23
- IC50 at 72 h (in vitro): > 100 µg/mL

Compound: O=C(Nc1ccc(F)c(F)c1F)NC1C2CC3CC(C2)CC1C3 (stereo not drawn) [Compound 1]
- Fold more potent than 2 (anti-TB activity) (M. tb H37Rv [2]): 40 fold

Compound: O=C(Nc1nnc(C2CC2)o1)NC1C2CC3CC(C2)CC1C3 (stereo not drawn) [Compound 50, 1-(2-adamantyl)-3-(5-cyclopropyl-1,3,4-oxadiazol-2-yl)urea]
- IC50 at 72 h [3]: > 100 µg/mL

Compound: CC(C)c1nnc(NC(=O)NC23CC4CC(CC(C4)C2)C3)o1 [Compound 37, 1-(1-adamantyl)-3-(5-isopropyl-1,3,4-oxadiazol-2-yl)urea]
- solubility at 18 h (physchem): ~10 µg/mL (≈ 32.9 µM)

Compound: CCn1nc(NC(=O)NC2C3CC4CC(C3)CC2C4)cc1C (stereo not drawn) [Compound 52, 1-(2-adamantyl)-3-(1-ethyl-5-methylpyrazol-3-yl)urea]
- IC50 at 72 h [3]: > 100 µg/mL

Compound: Cc1nnc(NC(=O)NC23CC4CC(CC(C4)C2)C3)o1 [Compound 36, 1-(1-adamantyl)-3-(5-methyl-1,3,4-oxadiazol-2-yl)urea]
- solubility at 18 h (physchem): ~10 µg/mL (≈ 36.2 µM)

Compound: Cc1cc(NC(=O)NC2C3CC4CC(C3)CC2C4)no1 (stereo not drawn) [Compound 47, 1-(2-adamantyl)-3-(5-methylisoxazol-3-yl)urea]
- solubility at 18 h (physchem): ~25 µg/mL (≈ 90.8 µM)
- selectivity ratio at 72 h (in vitro): > 8
- IC50 at 72 h (in vitro): > 48 µg/mL

Compound: Cc1cc(NC(=O)NC23CC4CC(CC(C4)C2)C3)no1 [Compound 23, 1-(1-adamantyl)-3-(5-methylisoxazol-3-yl)urea]
- solubility at 18 h (physchem): ~25 µg/mL (≈ 90.8 µM)

Compound: CCCSc1ccc2nc(NC(=O)OC)[nH]c2c1 [albendazole]
- Papp at 0.5 hr, 50 µM [4]: ~441 ×10⁻⁶ cm/s
